Where “and” joins values, the source holds several entries; their conditions need not be identical. Equal entries are not always repeated. Inconclusive results and toxic doses are left out.
Tested on: L1210 leukemia ip in BDF1 mice, survival T/C
Assay: NCI In Vivo Anticancer Drug Screen. Data for tumor model L1210 Leukemia (intraperitoneal) in B6D2F1 (BDF1) mice
Details: endpoint: mean survival time, higher = longer survival
Outline: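 In this screen, tumor-bearing mice given compound are compared to those given vehicle, and their survival values are reported as a treated-to-control quotient.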

[1] = dose: 100.0 mg/kg/injection, schedule: Q04DX003 (ip), vehicle: Klucel (hydroxypropylcellulose) (HPC)
[2] = dose: 200.0 mg/kg/injection, schedule: Q04DX003 (ip), vehicle: Klucel (hydroxypropylcellulose) (HPC)
[3] = dose: 100.0 mg/kg/injection, schedule: Q01DX001 (ip), vehicle: saline

Structure (SMILES): O=S1(=O)CCCC1C(O)c1ccccc1 (stereo not drawn)
- T/C [1]: 94 % of control and 98 % of control
- T/C [2]: 105 % of control and 102 % of control
- T/C (dose: 400.0 mg/kg/injection, schedule: Q04DX003 (ip), vehicle: Klucel (hydroxypropylcellulose) (HPC)): 105 % of control and 94 % of control

Structure (SMILES): CC(C)(C)NC(=O)Oc1ccc2ccccc2c1
- T/C (dose: 100.0 mg/kg/injection, schedule: Q01DX009 (ip), vehicle: other): 96 % of control
- T/C (dose: 200.0 mg/kg/injection, schedule: Q01DX009 (ip), vehicle: other): 102 % of control
- T/C (dose: 400.0 mg/kg/injection, schedule: Q01DX009 (ip), vehicle: other): 100 % of control

Structure (SMILES): CCCCCc1cccc(C)n1
- T/C [3]: 96 % of control

Structure (SMILES): C[C@@H]1C[C@@]2(C)[C@@H](CC[C@@H]3[C@@H]2CC[C@]2(C)[C@@H](OC4CCCCO4)CC[C@@H]32)CC1=O (stereo partly drawn)
- T/C (dose: 100.0 mg/kg/injection, schedule: Q01DX001 (ip), vehicle: carboxymethylcellulose (CMC)): 93 % of control
- T/C (dose: 400.0 mg/kg/injection, schedule: Q01DX001 (ip), vehicle: carboxymethylcellulose (CMC)): 88 % of control

Structure (SMILES): CCC(C)NC(=O)/C=C\C(=O)O (stereo not drawn)
- T/C (dose: 100.0 mg/kg/injection, schedule: Q04DX002 (ip), vehicle: saline with Tween-80): 95 % of control
- T/C (dose: 200.0 mg/kg/injection, schedule: Q04DX002 (ip), vehicle: saline with Tween-80): 92 % of control
- T/C (dose: 400.0 mg/kg/injection, schedule: Q04DX002 (ip), vehicle: saline with Tween-80): 100 % of control

Structure (SMILES): CCOC(=O)COc1ccc(/C=C/c2ccnc3ccccc23)cc1
- T/C (dose: 100.0 mg/kg/injection, schedule: Q01DX009 (ip), vehicle: Klucel (hydroxypropylcellulose) (HPC)): 100 % of control
- T/C (dose: 200.0 mg/kg/injection, schedule: Q01DX009 (ip), vehicle: Klucel (hydroxypropylcellulose) (HPC)): 106 % of control
- T/C (dose: 400.0 mg/kg/injection, schedule: Q01DX009 (ip), vehicle: Klucel (hydroxypropylcellulose) (HPC)): 94 % of control

Structure (SMILES): CCOP(=O)(CN1CCCCC1)OCC
- T/C (dose: 100.0 mg/kg/injection, schedule: Q04DX002 (ip), vehicle: saline): 104 % of control
- T/C (dose: 200.0 mg/kg/injection, schedule: Q04DX002 (ip), vehicle: saline): 96 % of control
- T/C (dose: 400.0 mg/kg/injection, schedule: Q04DX002 (ip), vehicle: saline): 104 % of control

Structure (SMILES): COc1ccc(/C=N/NC(=S)Nc2ccccn2)cc1OC
- T/C (dose: 25.0 mg/kg/injection, schedule: Q01DX009 (ip), vehicle: saline with Tween-80): 104 % of control
- T/C (dose: 50.0 mg/kg/injection, schedule: Q01DX009 (ip), vehicle: saline with Tween-80): 93 % of control
- T/C (dose: 100.0 mg/kg/injection, schedule: Q01DX009 (ip), vehicle: saline with Tween-80): 122 % of control

Structure (SMILES): CC1CCCCC1OC(=O)CCN1CC1 (stereo not drawn)
- T/C (dose: 3.0 mg/kg/injection, schedule: Q01DX009 (ip), vehicle: Klucel (hydroxypropylcellulose) (HPC)): 94 % of control
- T/C (dose: 6.0 mg/kg/injection, schedule: Q01DX009 (ip), vehicle: Klucel (hydroxypropylcellulose) (HPC)): 94 % of control
- T/C (dose: 12.0 mg/kg/injection, schedule: Q01DX009 (ip), vehicle: Klucel (hydroxypropylcellulose) (HPC)): 100 % of control
- T/C (dose: 25.0 mg/kg/injection, schedule: Q01DX009 (ip), vehicle: Klucel (hydroxypropylcellulose) (HPC)): 94 % of control and 102 % of control
- T/C (dose: 50.0 mg/kg/injection, schedule: Q01DX009 (ip), vehicle: Klucel (hydroxypropylcellulose) (HPC)): 109 % of control
- T/C (dose: 50.0 mg/kg/injection, schedule: Q04DX003 (ip), vehicle: Klucel (hydroxypropylcellulose) (HPC)): 108 % of control
- T/C [1]: 97 % of control and 108 % of control
- T/C [2]: 104 % of control

Structure (SMILES): CCCCCCCCCCNC(=O)CI
- T/C [3]: 100 % of control
- T/C (dose: 200.0 mg/kg/injection, schedule: Q01DX001 (ip), vehicle: saline): 94 % of control

Structure (SMILES): FC(F)(F)c1nc(=S)c2cn[nH]c2[nH]1
- T/C (dose: 44.0 mg/kg/injection, schedule: Q01DX Z (ip), vehicle: methylcellulose (MC)): 100 % of control
- T/C (dose: 66.0 mg/kg/injection, schedule: Q01DX Z (ip), vehicle: methylcellulose (MC)): 91 % of control
- T/C (dose: 100.0 mg/kg/injection, schedule: Q01DX Z (ip), vehicle: methylcellulose (MC)): 95 % of control

Structure (SMILES): Clc1nc2ccccc2c2ccccc12
- T/C (dose: 43.0 mg/kg/injection, schedule: Q01DX001 (ip), vehicle: carboxymethylcellulose (CMC)): 96 % of control
- T/C (dose: 85.0 mg/kg/injection, schedule: Q01DX001 (ip), vehicle: carboxymethylcellulose (CMC)): 92 % of control
- T/C (dose: 170.0 mg/kg/injection, schedule: Q01DX001 (ip), vehicle: carboxymethylcellulose (CMC)): 92 % of control

Structure (SMILES): CCC(C)C(=NC)Nc1ccc(Cl)c(Cl)c1 (stereo not drawn)
- T/C (dose: 111.0 mg/kg/injection, schedule: Q01DX Z (ip), vehicle: methylcellulose (MC)): 91 % of control

Structure (SMILES): CN(C)C(=S)[S][Sb]([S]C(=S)N(C)C)[c]1ccccc1
- T/C (dose: 100.0 mg/kg/injection, schedule: Q01DX001 (ip), vehicle: steriod suspending solution): 96 % of control
- T/C (dose: 200.0 mg/kg/injection, schedule: Q01DX001 (ip), vehicle: steriod suspending solution): 96 % of control

Structure (SMILES): Cc1ccc(CN(C)N=Nc2ccc(C#N)cc2)cc1
- T/C (dose: 100.0 mg/kg/injection, schedule: Q04DX003 (ip), vehicle: saline with Tween-80): 96 % of control
- T/C (dose: 200.0 mg/kg/injection, schedule: Q04DX003 (ip), vehicle: saline with Tween-80): 87 % of control
- T/C (dose: 400.0 mg/kg/injection, schedule: Q04DX003 (ip), vehicle: saline with Tween-80): 94 % of control

From PubChem BioAssay AID248 (DTP/NCI, 2004)
